Experimental data as given in US10407445B2, “Hepatitis C virus inhibitors” (ENANTA PHARMACEUTICALS, INC., priority 2013, dated 2019).
Where two headings read alike, the source gives them in different places.

Experiments:
Assay type in all cases: cell-based
HCV GT 3a replicon = experiment: HCV replicon assay, GT2a chimeric replicon expressing NS5A from GT3a strain S52; conditions: Hepatitis C virus
Description: (§1) The activity of compounds was determined against HCV replicons representing genotypes (GT) 1a, 1b, 2a, and 3a. To generate stable Huh-7.5-based cell lines, HCV replicons were engineered to express the Renilla luciferase reporter (hRluc) fused to the neomycin phosphotransferase (Neo) gene. GT2a and GT3a HCV replicons were based on the JFH-1 subgenomic replicon (Kato et al. 2003 Gastroenterology, 125:1808-1817), in which the NS5A gene was replaced with that of strains J6 and S52 (GT2a and G3a, respectively). The activity of compounds against GT1a replicons encoding NS5A mutations (M28T, Q30R, L31M, Y93C, and Y93H) was also determined in a transient replication assay. The parental GT1a and GT2a replicons (pH/SG-Neo(L+I) and pSG-Neo-JFH1, respectively) were licensed from Apath LLC (Saint Louis, Mo.). The parental GT 1b replicon (pFKi389lucubineo_3_3′_ET) was licensed from ReBLikon GmbH (Germany). HCV replicons were constructed by standard molecular biology techniques described below. All replicon constructs were verified by restriction enzyme digestion and DNA sequencing.
(§2) The plasmid pSG-hRlucNeo-JFH1 was generated from pSG-Neo-JFH1 (Kato et al. 2003, Gastroentrology 125:1808-1817). A fragment containing the JFH-1 5′ NTR—hRluc-Neo gene and two unique restriction sites (AgeI and PmeI) was synthesized (Integrated DNA Technologies, Coralville, Iowa). The resulting synthetic plasmid was digested with AgeI and PmeI and the excised fragment (5′NTR-hRluc-Neo) was ligated into pSG-Neo-JFH1 digested with the same enzymes to generate pSG-hRlucNeo-JFH1. To allow expression of heterologous NS5A sequences, an NS5A shuttle vector was generated from pSG-Neo-JFH1, in which the entire coding sequence of NS5A plus the first eight codons of NS5B were replaced with an AfeI restriction site. This was done by Infusion cloning (Clontech, Mountain View, Calif.) from two PCR products that were generated using pSG-Neo-JFH1 as a template and the following primer pairs:
(§3) Underlined sequences denote regions of overlap necessary for Infusion cloning. Purified PCR products were cloned directly into an NsiI/SnaBI digested pSG-Neo-JFH1 following the manufacturer's instructions to generate pSG-Neo-JFH1-5Ashuttle. The 2023 base pair AgeI/PmeI fragment from pSG-hRlucNeo-JFH1 was then ligated into pSG-Neo-JFH1-5Ashuttle to generate pSG-hRlucNeo-JFH1-5Ashuttle. To generate the 2a-2a-(J6) and 2a-3a-(S52) NS5A chimeric replicons, the full length NS5A sequences from GT2a strain J6 (accession AF177036) and GT3a strain S52 (accession GU814263), with the addition of the first eight codons of JFH-1 NS5B (5′-TCCATGTCATACTCCTGGACCGGG-3′), were synthesized by GeneArt (Life Technologies, Carlsbad Calif.). J6 and S52 NS5A sequences were then PCR amplified from the synthetic clones using the appropriate forward primer:
(§4) Underlined sequences denote regions of overlap with pSG-hRlucNeo-JFH1-5Ashuttle necessary for Infusion cloning. Purified PCR products were directly cloned into AfeI-digested shuttle vector by Infusion cloning following the manufacturer's instructions.
(§5) Stable HCV replicon cell lines were grown in complete media (Dulbecco's modified Eagle medium [DMEM], 2 mM L-glutamine, 0.1 mM essential amino acids, 1 mM sodium pyruvate, 10% heat inactivated fetal bovine serum) with the addition 500 μg/ml […] (G418). Huh7-lunet cells were maintained in the same medium without the addition of G418. Cells were routinely passaged at a dilution of 1:4 two times a week. The assay medium for both luciferase reporter HCV replicon and cytotoxicity assays used phenol red-free DMEM and lacked G418. For each stable replicon assay, a sixteen point half-log dilution series of compound was stamped (0.5 ul compound per well) into three replica 384-well plates, to which cells were added directly (4000 cells/well). […]

HCV GT 2a-J6 replicon = experiment: HCV replicon assay, GT2a chimeric replicon expressing NS5A from GT2a strain J6; conditions: Hepatitis C virus
Description: as §1, §2, §3, §4, §5

[1] = test system: GT1a replicon encoding NS5A mutation Q30R; experiment: Transient replication assay, GT1a replicon with NS5A mutation Q30R; conditions: Hepatitis C virus
[2] = test system: GT1a replicon encoding NS5A mutation Y93C; experiment: Transient replication assay, GT1a replicon with NS5A mutation Y93C; conditions: Hepatitis C virus
HCV GT 1b replicon = experiment: HCV replicon assay, stable GT 1b replicon (Renilla luciferase); conditions: Hepatitis C virus, GT1B, 72 h
Description: as §1
The hRluc-Neo cassette was PCR amplified from pF9 cytomegalovirus (CMV) hRluc-Neo Flexi(R) (Promega) using Accuprime Super Mix II (Invitrogen) and the following primers, which introduce restriction sites: […]
The amplification product was subcloned into pCR2.1-TOPO (Invitrogen). The resulting plasmid was digested with AscI and NotI, and the excised hRluc-Neo fragment was ligated using the Roche Quick Ligation Kit (Roche) into pFKi389lucubineo_3_3′_ET digested with the same enzymes.
Stable HCV replicon cell lines were grown in complete media (Dulbecco's modified Eagle medium [DMEM], 2 mM L-glutamine, 0.1 mM essential amino acids, 1 mM sodium pyruvate, 10% heat inactivated fetal bovine serum) with the addition 500 μg/ml […] (G418). Huh7-lunet cells were maintained in the same medium without the addition of G418. Cells were routinely passaged at a dilution of 1:4 two times a week. The assay medium for both luciferase reporter HCV replicon and cytotoxicity assays used phenol red-free DMEM and lacked G418. For each stable replicon assay, a sixteen point half-log dilution series of compound was stamped (0.5 ul compound per well) into three replica 384-well plates, to which cells were added directly (4000 cells/well). For the transient replication assay, Huh7-lunet cells in ice-cold phosphate buffered saline (PBS) were electroporated (BioRad electroporator; 950 uF, 270V) with 10 ug purified in vitro transcribed HCV replicon RNA, followed by resuspension in complete media and plating (8000 cells/well) into compound stamped 384-well plates. Luciferase activity of compound-treated cells was measured relative to DMSO-treated cells after 72 h incubation using RENILLA-GLO™ Luciferase Assay (Promega). Cytotoxicity (CC50) in the GT1b replicon cell line was analyzed using CELL TITER-GLO™ (Promega).
The compounds of the present invention can be effective against the HCV 1b genotype. It should also be understood that the compounds of the present invention can inhibit multiple genotypes of HCV. In one embodiment compound of the present invention are active against the 1a, 1b, 2a, 2b, 3a, 4a, and 5a genotypes. In another embodiment compound of the present invention are active against the HCV resistant mutants. […] EC50s are in pM against HCV GT 1a and GT 1b; and nM against GT 2a-J6, GT 3a and GT1a resistant variants (M28T, Q30R, L31V, Y93C and Y93H).

[3] = test system: GT1a replicon encoding NS5A mutation M28T; experiment: Transient replication assay, GT1a replicon with NS5A mutation M28T; conditions: Hepatitis C virus

Structure (SMILES) | EC50 (HCV GT 3a replicon; 72 h, read-out: EC50 3a) | EC50 (HCV GT 2a-J6 replicon; 72 h, read-out: EC50 2a J6) | EC50 ([1]; read-out: EC50 1a Q30R) | EC50 ([2]; read-out: EC50 1a Y93C) | EC50 (HCV GT 1b replicon) | EC50 ([3]; read-out: EC50 1a M28T) | EC50 (HCV GT 3a replicon; read-out: EC50 (nM) 3a) | EC50 (HCV GT 2a-J6 replicon; read-out: EC50 (nM) 2a-J6) | EC50 ([1]; read-out: EC50 (nM) 1a Q30R) | EC50 ([2]; read-out: EC50 (nM) 1a Y93C) | EC50 ([3]; read-out: EC50 (nM) 1a M28T)
COC(=O)N[C@H](C(=O)N1[C@H](c2nc3ccc4cc(-c5ccc(-c6cnc([C@@H]7C[C@@]8(CCCOC8)CN7C(=O)[C@@H](NC(=O)OC)C7C[C@@H](C)O[C@H](C)C7)[nH]6)cc5)ccc4c3[nH]2)C[C@@H]2CCCC[C@@H]21)C(C)C (stereo in doubt) [Compound 38] | 0.07 nM | 0.09 nM | 0.002 nM | 0.004 nM | 0.015 nM | 0.002 nM |  |  |  |  | 
COC(=O)N[C@H](C(=O)N1[C@H](c2nc3ccc4cc(-c5ccc(-c6cnc([C@@H]7C[C@@]8(CCCOC8)CN7C(=O)[C@H](NC(=O)OC)C7C[C@@H](C)O[C@H](C)C7)[nH]6)cc5)ccc4c3[nH]2)C[C@@H]2CCCC[C@@H]21)C(C)C (stereo in doubt) [Compound 39] | 48 nM | 41 nM | 0.05 nM | 4 nM | 0.029 nM | 0.4 nM |  |  |  |  | 
COC(=O)N[C@H](C(=O)N1C[C@]2(CCCOC2)C[C@H]1c1nc2ccc3cc(-c4ccc(-c5cnc([C@@H]6C[C@H]7C[C@H]7N6C(=O)[C@@H](NC(=O)OC)C(C)C)[nH]5)cc4)ccc3c2[nH]1)C(C)C [Compound 5] | 0.5 nM | 3 nM | 0.05 nM | 0.06 nM | 0.011 nM | 0.03 nM |  |  |  |  | 
COC(=O)N[C@H](C(=O)N1C[C@]2(CCCOC2)C[C@H]1c1nc2ccc3cc(-c4ccc5c(ccc6nc([C@@H]7C[C@H]8C[C@H]8N7C(=O)[C@@H](NC(=O)OC)C(C)C)[nH]c65)c4)ccc3c2[nH]1)C(C)C [Compound 6] | 0.08 nM | 0.07 nM | 0.04 nM | 0.02 nM | 0.012 nM | 0.06 nM |  |  |  |  | 
COC(=O)N[C@H](C(=O)N1CC2(CC2)C[C@H]1c1nc2ccc3cc(-c4ccc5c(ccc6nc([C@@H]7C[C@@]8(CCCOC8)CN7C(=O)[C@@H](NC(=O)OC)C(C)C)[nH]c65)c4)ccc3c2[nH]1)C(C)C [Compound 7] | 0.05 nM | 0.3 nM | 0.03 nM | 0.02 nM | 0.012 nM | 0.02 nM |  |  |  |  | 
COC(=O)N[C@H](C(=O)N1CC2(CC2)C[C@H]1c1ncc(-c2ccc(-c3ccc4c(ccc5nc([C@@H]6C[C@@]7(CCCOC7)CN6C(=O)[C@@H](NC(=O)OC)C(C)C)[nH]c54)c3)cc2)[nH]1)C(C)C [Compound 8] | 0.9 nM | 8 nM | 0.1 nM | 0.1 nM | 0.01 nM | 0.06 nM |  |  |  |  | 
COC(=O)N[C@H](C(=O)N1C[C@]2(CCCOC2)C[C@H]1c1nc2ccc3cc(-c4ccc5c(ccc6nc([C@@H]7C[C@@H]8CCC[C@@H]8N7C(=O)[C@@H](NC(=O)OC)C(C)C)[nH]c65)c4)ccc3c2[nH]1)C(C)C [Compound 9] | 0.06 nM | 0.04 nM | 0.01 nM | 0.03 nM | 0.006 nM | 0.03 nM |  |  |  |  | 
COC(=O)N[C@H](C(=O)N1C[C@]2(CCCOC2)C[C@H]1c1nc2ccc3cc(-c4ccc(-c5cnc([C@@H]6C[C@@H]7CCC[C@@H]7N6C(=O)[C@@H](NC(=O)OC)C(C)C)[nH]5)cc4)ccc3c2[nH]1)C(C)C [Compound 10] | 0.2 nM | 0.2 nM | 0.02 nM | 0.2 nM | 0.005 nM | 0.04 nM |  |  |  |  | 
COC(=O)N[C@H](C(=O)N1C[C@]2(CCCOC2)C[C@H]1c1ncc(-c2ccc(-c3ccc4c(ccc5nc([C@@H]6C[C@@]7(CCCOC7)CN6C(=O)[C@@H](NC(=O)OC)C(C)C)[nH]c54)c3)cc2)[nH]1)C(C)C [Compound 11] | 0.4 nM | 2 nM | 0.05 nM | 0.07 nM | 0.052 nM | 0.02 nM |  |  |  |  | 
COC(=O)N[C@H](C(=O)N1C[C@]2(CCCOC2)C[C@H]1c1ncc(-c2ccc3cc4cc(-c5cnc([C@@H]6C[C@@H]7CCCC[C@@H]7N6C(=O)[C@@H](NC(=O)OC)C(C)C)[nH]5)ccc4cc3c2)[nH]1)C(C)C [Compound 13] | 0.9 nM | 17 nM | 0.01 nM | 0.3 nM | 0.021 nM | 0.02 nM |  |  |  |  | 
COC(=O)N[C@H](C(=O)N1C[C@]2(CCCOC2)C[C@H]1c1ncc(-c2ccc3c(c2)COc2cc(-c4cnc([C@@H]5C[C@@H]6CCCC[C@@H]6N5C(=O)[C@@H](NC(=O)OC)C(C)C)[nH]4)ccc2-3)[nH]1)C(C)C [Compound 15] | 0.2 nM | 1 nM | 0.003 nM | 0.2 nM | 0.012 nM | 0.01 nM |  |  |  |  | 
COC(=O)N[C@H](C(=O)N1C[C@]2(CCCOC2)C[C@H]1c1ncc(-c2ccc(-c3ccc4c(ccc5nc([C@@H]6C[C@@H]7CCC[C@@H]7N6C(=O)[C@@H](NC(=O)OC)C(C)C)[nH]c54)c3)cc2)[nH]1)C(C)C [Compound 16] | 0.8 nM | 0.8 nM | 0.02 nM | 0.3 nM | 0.01 nM | 0.08 nM |  |  |  |  | 
COC(=O)N[C@H](C(=O)N1C[C@]2(CCCOC2)C[C@H]1c1ncc(-c2ccc(-c3ccc4c(ccc5nc([C@@H]6CCCN6C(=O)[C@@H](NC(=O)OC)C(C)C)[nH]c54)c3)cc2)[nH]1)C(C)C [drawing 233] |  |  |  |  |  |  | 0.08 nM | 0.6 nM | 0.1 nM | 0.3 nM | 0.2 nM
